What was measured:
[1] = test system: transplanted tumor of human non-small cell lung cancer cell A549; assay: A549 transplanted tumor in nude mice; details: for Tumor Volume (mm3) (d 1): d1
Method: A549 cells in a logarithmic growth phase were taken and subjected to a trypan blue exclusion experiment showing that the cell viability was more than 95%, then the cells were subjected to trypsinization, centrifugation, and supernatant removal. Then cell concentration was adjusted to 1×10^7/ml with matrigel, then each nude mouse was inoculated subcutaneously with 0.2 ml of cells at its right armpit and recorded as the first day of inoculation. When the tumor grows to be greater than or equal to 100 mm^3, the mice were randomly divided into 11 groups with 6 mice in each group: a model group, a cyclophosphamide group, isovaleryl spiramycin I groups with doses of 25, 50 and 100 mg/kg, isovaleryl spiramycin II groups with doses of 25, 50 and 100 mg/kg, and isovaleryl spiramycin III groups with doses of 25, 50 and 100 mg/kg. Each group was continuously administered intragastrically for 30 days with a dose of 20 ml/kg. The mice were sacrificed the next day after drug withdrawal and the indicators were tested. The long diameter and short diameter of the tumor, and the body weight of each mouse were recorded every 3 days from drug administration to nude mouse sacrifice.
The body weight of the nude mice and the long diameter (a) and short diameter (b) of the transplanted tumor were measured every 3 days, and the tumor volume (v), relative tumor volume (RTV) and relative tumor proliferation rate (T/C) are calculated respectively according to the following formulas, wherein V=a×b^2/2; RTV=V/V0 (V0 is the tumor volume before administration, V is the tumor volume before sacrifice), and T/C (%)=treatment group RTV/model control group RTV×100%.
Each mouse was weighed and sacrificed. After the tumor was completely stripped off from the body of the mouse, the non-tumor tissues such as blood stains and fat were removed to weigh the tumor and calculate the tumor growth inhibition rate. The average tumor weight of each group of mice is used as an indicator of efficacy. Tumor growth inhibition rate (%)=(1−the average tumor weight of the treatment group/the average tumor weight of the model group)×100%.

[2] = Spleen index of A549 lung cancer tumor-bearing mice; details: n = 6
[3] = test system: transplanted tumor of mouse Lewis lung cancer; assay: Transplanted tumor of mouse Lewis lung cancer; details: for Tumor Volume (mm3) (d 1) / Tumor Volume (mm3) (d30) / Relative Tumor Proliferation Rate (T/C) / Relative Tumor Volume (RTV): title prints KM mouse H22 cells; for Tumor Volume (mm3) (d30): d 30; for Body Weight (g) (d1) / Body Weight (g) (d 15): mouse, in vivo
Method: Lewis lung cancer cells were cultured in a RPMI 1640 culture medium containing 10% fetal bovine serum at 37° C. in a 5% CO2 incubator. The cells in the logarithmic growth phase were subjected to trypsinization with 0.25% trypsin, then the cells were collected to be centrifugated to remove the obtained supernatant, then were washed twice with sterile normal saline. […] The Lewis cells were adjusted to 1×10^7/mL in concentration and stored in ice water. 75% ethanol was used to disinfect the skin under the right armpits of the mice, and each C57BL/6 mouse was soon inoculated subcutaneously with 0.2 ml of the cells at its right armpit.
In the Lewis lung cancer model, the mice inoculated with the tumor were randomly divided into groups with 10 mice in each group the next day of inoculation. The groups included: a model control group, a positive drug cyclophosphamide control group (CTX, 30 mg/kg), isovaleryl spiramycin I groups with doses of 13, 26 and 52 mg/kg; isovaleryl spiramycin II groups with doses of 13, 26 and 52 mg/kg; isovaleryl spiramycin III groups with doses of 13, 26 and 52 mg/kg. Each group was continuously administered intragastrically for 15 days with a dose of 20 ml/kg.
The tumor-bearing mice were weighed and sacrificed the next day after the last administration. The subcutaneous tumors were dissected and weighed. The average tumor weight of each group is calculated, and the tumor inhibition rate is calculated.
Tumor inhibition rate=(1−T/C)×100%
T: average tumor weight of the drug-administered group; C: average tumor weight of the blank control group.

[4] = A549, high dose (100 mg/kg in method) i.g. 30 days
[5] = A549, low dose (25 mg/kg in method) i.g. 30 days
[6] = A549, medium dose (50 mg/kg in method) i.g. 30 days

- mouse weight compared with the model group ([1]; mouse, in vivo): no significant changes
SMILES: CCC(=O)O[C@@H]1CC(=O)O[C@H](C)C/C=C/C=C/[C@H](O[C@H]2CC[C@H](N(C)C)[C@@H](C)O2)[C@H](C)C[C@H](CC=O)[C@H](O[C@@H]2O[C@H](C)[C@@H](O[C@H]3C[C@@](C)(O)[C@@H](OC(=O)CC(C)C)[C@H](C)O3)[C@H](N(C)C)[C@H]2O)[C@H]1OC [Isovaleryl spiramycin III, isovaleryl spiramycin III]
- Relative Tumor Proliferation Rate (T/C) [1, 4]: 33.04%
- tumor growth inhibition rate [1, 4]: 66.53%
- Relative Tumor Proliferation Rate (T/C) [1, 5]: 65.93%
- tumor growth inhibition rate [1, 5]: 37.99%
- tumor volume and relative tumor volume compared with the model group ([1]; A549, low, medium and high doses, P<0.05): significantly lower
- Relative Tumor Proliferation Rate (T/C) [1, 6]: 47.25%
- tumor growth inhibition rate [1, 6]: 55.95%
- Inhibition Rate (%) ([1]; A549 nude mice, 25 mg/kg): 37.99%
- Relative Tumor Proliferation Rate (T/C) ([1]; A549 nude mice, 25 mg/kg): 65.93%
- Relative Tumor Volume (RTV) ([1]; A549 nude mice, 25 mg/kg): 10.70 ± 2.64
- Tumor Weight ([1]; A549 nude mice, 25 mg/kg): 1.49 ± 0.42 g
- Tumor Volume (mm3) (d 1) ([1]; A549 nude mice, 25 mg/kg): 113.96 ± 6.85 mm3
- Tumor Volume (mm3) (d30) ([1]; A549 nude mice, 25 mg/kg): 1216.86 ± 295.20 mm3
- Inhibition Rate (%) ([1]; A549 nude mice, 50 mg/kg): 55.95%
- Relative Tumor Proliferation Rate (T/C) ([1]; A549 nude mice, 50 mg/kg): 47.25%
- Relative Tumor Volume (RTV) ([1]; A549 nude mice, 50 mg/kg): 7.67 ± 2.86
- Tumor Weight ([1]; A549 nude mice, 50 mg/kg): 1.06 ± 0.49 g
- Tumor Volume (mm3) (d 1) ([1]; A549 nude mice, 50 mg/kg): 113.65 ± 11.57 mm3
- Tumor Volume (mm3) (d30) ([1]; A549 nude mice, 50 mg/kg): 856.65 ± 281.96 mm3
- Inhibition Rate (%) ([1]; A549 nude mice, 100 mg/kg): 66.53%
- Relative Tumor Proliferation Rate (T/C) ([1]; A549 nude mice, 100 mg/kg): 33.04%
- Relative Tumor Volume (RTV) ([1]; A549 nude mice, 100 mg/kg): 5.36 ± 3.01
- Tumor Weight ([1]; A549 nude mice, 100 mg/kg): 0.80 ± 0.43 g
- Tumor Volume (mm3) (d 1) ([1]; A549 nude mice, 100 mg/kg): 118.69 ± 8.13 mm3
- Tumor Volume (mm3) (d30) ([1]; A549 nude mice, 100 mg/kg): 632.73 ± 350.89 mm3
- Body Weight (g) (d1) ([1]; mouse, in vivo, 25 mg/kg): 21.68 ± 1.25 g
- Body Weight (g) (d30) ([1]; mouse, in vivo, 25 mg/kg): 23.97 ± 1.01 g
- Body Weight (g) (d1) ([1]; mouse, in vivo, 50 mg/kg): 21.99 ± 1.40 g
- Body Weight (g) (d30) ([1]; mouse, in vivo, 50 mg/kg): 24.36 ± 1.73 g
- Body Weight (g) (d1) ([1]; mouse, in vivo, 100 mg/kg): 20.57 ± 2.28 g
- Body Weight (g) (d30) ([1]; mouse, in vivo, 100 mg/kg): 23.53 ± 1.63 g
- Spleen Index (%) ([2]; dose 13 mg/kg): 0.32 ± 0.02%
- Spleen Index (%) ([2]; dose 26 mg/kg): 0.33 ± 0.11%
- Spleen Index (%) ([2]; dose 52 mg/kg): 0.35 ± 0.09%
- growth of Lewis lung cancer in mice ([3]; 13, 26 and 52 mg/kg i.g. 15 days): significantly inhibit
- Tumor Volume (mm3) (d 1) ([3]; dose 12.5 mg/kg): 105.02 ± 31.31 mm3
- Tumor Volume (mm3) (d30) ([3]; dose 12.5 mg/kg): 1270.87 ± 198.05 mm3
- Relative Tumor Proliferation Rate (T/C) ([3]; dose 12.5 mg/kg): 84.57
- Relative Tumor Volume (RTV) ([3]; dose 12.5 mg/kg): 13.54 ± 6.73
- Inhibition Rate (%) ([3]; dose 13 mg/kg): 35.46%
- Tumor Weight ([3]; dose 13 mg/kg): 1.03 ± 0.18 g
- Tumor Volume (mm3) (d 1) ([3]; dose 25 mg/kg): 103.29 ± 29.09 mm3
- Tumor Volume (mm3) (d30) ([3]; dose 25 mg/kg): 841.92 ± 385.16 mm3
- Relative Tumor Proliferation Rate (T/C) ([3]; dose 25 mg/kg): 58.38
- Relative Tumor Volume (RTV) ([3]; dose 25 mg/kg): 9.35 ± 5.89
- Inhibition Rate (%) ([3]; dose 26 mg/kg): 48.96%
- Tumor Weight ([3]; dose 26 mg/kg): 0.82 ± 0.34 g
- Tumor Volume (mm3) (d 1) ([3]; dose 50 mg/kg): 104.43 ± 23.09 mm3
- Tumor Volume (mm3) (d30) ([3]; dose 50 mg/kg): 677.35 ± 237.77 mm3
- Relative Tumor Proliferation Rate (T/C) ([3]; dose 50 mg/kg): 41.81
- Relative Tumor Volume (RTV) ([3]; dose 50 mg/kg): 6.69 ± 2.56
- Inhibition Rate (%) ([3]; dose 52 mg/kg): 57.54%
- Tumor Weight ([3]; dose 52 mg/kg): 0.68 ± 0.18 g
- Body Weight (g) (d1) ([3]; 13 mg/kg): 19.62 ± 1.30 g
- Body Weight (g) (d 15) ([3]; 13 mg/kg): 22.52 ± 0.57 g
- Body Weight (g) (d1) ([3]; 26 mg/kg): 19.58 ± 0.63 g
- Body Weight (g) (d 15) ([3]; 26 mg/kg): 22.28 ± 0.66 g
- Body Weight (g) (d1) ([3]; 52 mg/kg): 20.00 ± 0.60 g
- Body Weight (g) (d 15) ([3]; 52 mg/kg): 22.42 ± 1.66 g

From US20200163984A1, “USE OF ISOVALERYL SPIRAMYCIN I, II AND/OR III IN MANUFACTURING MEDICAMENT FOR TREATING AND/OR PREVENTING TUMOR, AND MEDICAMENT” (SHENYANG FUYANG PHARMACEUTICAL TECHNOLOGY CO., LTD., priority 2017, published 2020)
